Laboratory results taken from patent publication US20220104495A1, “THEOPHYLLINE DERIVATIVES WITH NEMATOCIDAL ACTIVITY, THEIR AGRONOMIC COMPOSITIONS AND RELATIVE USE” (ISAGRO S.p.A., priority 2019, published 2022).

System: Meloidogyne sp.
Assay: Determination of the nematocidal activity against Meloidogyne sp. (potted tomato, greenhouse)
Format: in vivo
Conditions: for GALL INDEX (scale 0-10) / PLANT DEVELOPMENT (fresh weight g) / INFESTED ROOT % / reduction in parasitosis at the root level (in words): tomatoes, cv Marmande; for GALL INDEX (scale 0-10) / PLANT DEVELOPMENT (fresh weight g) / INFESTED ROOT %: dose 4,000 g/hectare, survey 30 days after transplantation; for GALL INDEX (scale 0-10): Bridge-Page scale, 0 = 0% of root affected, 10 = 100% infested root, infested blank 7; for PLANT DEVELOPMENT (fresh weight g): infested blank 13; for INFESTED ROOT %: infested blank 70; for reduction in parasitosis at the root level (in words): 4,000 g/hectare, 30 days, comment on Table 6
Method: The tests aimed at testing the nematocidal activity of the product under examination are carried out using inocula taken from a cultivation of Meloidogyne sp. maintained on potted tomato and cucumber plants and grown in a greenhouse.
In order to carry out the experiments, portions of roots having a large number of galls and soil are taken from the infested pots, in which larvae are present starting from the second stage of age.
New pots having a diameter of 15 cm are half-filled with sterile earth. The portions of infested roots, previously cleaned, are placed on it to be able to correctly assess the degree of infestation and ensure that each pot contains the same nematic charge. 200-300 g of infested soil are then added, which are covered with a thin layer of sterile earth.
The treatment is carried out by pouring 100 ml of hydroacetonic solution onto the surface of the soil in which the product to be tested has been dissolved to obtain a concentration ranging from 70 to 100 ppm.
Tomato or cucumber seedlings at the stage of two or three actual leaves are transplanted in the pots thus prepared, after one or seven days from the application. Different cultivars of tomatoes (Microtom, Marmande) or cucumbers (Lungo della Cina) are used, having a different sensitivity to the parasite and different times of growth. In particular, for estimating the final production, a variety of ornamental tomatoes (cv Microtom) is used, whose seedlings are small in size and able to reach the maturity of the fruit in about two months in pots and under greenhouse conditions.
The containment capacity of the parasite is detected, 30 and 60 days after the transplantation, considering the development of the plant (whose fresh weight is detected) and the presence of galls on the roots.
This is estimated using both the infestation scale proposed by Bridge-Page (Tropical Pest Management 26 (3): 296-298, September 1980), according to which the value zero corresponds to 0% of root affected and the value 10 corresponds to 100% of infested root, and also considering the percentage of root mass affected.
Table 6 indicates the results relating to the effectiveness of Compounds Nr.

Row | Compound | GALL INDEX (scale 0-10) | PLANT DEVELOPMENT (fresh weight g) | INFESTED ROOT % | reduction in parasitosis at the root level (in words) | nematocidal activity of caffeine as verified by the Applicant (in words) (attack of the parasite and formation of galls on the root system, conditions not given)
1 | Cn1c(=O)c2c(ncn2CC[S+]([O-])CCC(F)=C(F)F)n(C)c1=O (centres unmarked) [Comp. Nr. 8, 1,3-dimethyl-7-[2-(3,4,4-trifluorobut-3-ene-1-sulfinyl)ethyl]-3,7-dihydro-1H-purin-2,6-dione] | 5 | 17 g | 50% | – | –
2 | Cn1c(=O)c2c(ncn2CC(=O)OCCC(F)=C(F)F)n(C)c1=O [Comp. Nr. 21, 3,4,4-trifluorobut-3-en-1-yl (1,3-dimethyl-2,6-dioxo-1,2,3,6-tetrahydro-7H-purin-7-yl) acetate] | 2 | 20 g | 20% | decisive reduction in parasitosis at the root level | –
3 | Cn1c(=O)c2c(ncn2CCS(=O)(=O)CCC(F)=C(F)F)n(C)c1=O [Comp. Nr. 11, 1,3-dimethyl-7-[2-(3,4,4-trifluorobut-3-ene-1-sulfonyl)ethyl]-3,7-dihydro-1H-purin-2,6-dione] | 4.5 | 16 g | 45% | decisive reduction in parasitosis at the root level | –
4 | Cn1c(=O)c2c(ncn2C)n(C)c1=O [Caffeine, caffeine, reference compound] | – | 12 g | 70% | – | unsatisfactory from the point of view of nematocidal activity
